Experiment [1] has as its system NT-1 tobacco suspension cells treated with DSM-2 (v2) (pDAB3778). Put plainly: NT-1 tobacco cell transformation, selection on bialaphos or glufosinate ammonium. It is filed as cell-based. The conditions noted are these: for Transformation Frequency on 10 mg/L Bialaphos following PCR Verification: % of selection plates with at least one PCR positive isolate. The protocol: (§1) Four days prior to transformation, a 1 week old NT-1 tobacco suspension, which was being subcultured every 7 days, was subcultured to fresh medium by adding 2 ml of the NT-1 culture or 1 ml of packed cells into 40 ml NT-1 B media. The subcultured suspension was maintained in the dark at 25±1° C. on a shaker at 125 rpm.
(§2) A 50% glycerol stock of Agrobacterium tumefaciens [strain LBA4404] harboring a binary vector of interest was used to initiate a liquid overnight culture by adding 20, 100, or 500 μl to 30 ml YEP liquid (10 g/L yeast extract, 10 g/L Peptone, 5 g/L NaCl, 0-10 g/L Sucrose) containing 50-100 mg/L spectinomycin. The bacterial culture was incubated in the dark at 28° C. in an incubator shaker at 150-250 rpm until the OD600 was 1.5+0.2. This took approximately 18-20 hrs.
For each vector tested, 20-70 mL of 4-day old suspension cells were transferred into a sterile vessel, to which 500-1750 μl of Agrobacterium suspension at the proper OD was added. To ensure a uniform mixture was achieved, the cells were pipetted up and down 5 times with a 10 ml wide-bore pipet. The uniform suspension was then drawn up into a 25 ml barrel of a repeat pipetter and 250 μl of the suspension was dispensed per well into 24-well plates, continuing until the suspension was exhausted. The well plates were wrapped in parafilm and cultured in the dark at 25±1° C. without shaking for a 3 day co-cultivation.
Following the co-cultivation, all excess liquid was removed from the individual wells with a 1 mL pipet tip, and remaining cells were resuspended in 1 ml NTC liquid (NT-1 B medium containing 500 mg/L carbenicillin, added after autoclaving). The contents of an individual well were dispersed across the entire surface of 100×25 mm selection plates using disposable transfer pipets. Selection media consisted of NTC media solidified with 8 g/l TC agar supplemented with 7.5 to 15 mg/L bialaphos or technical grade glufosinate ammonium, added after autoclaving. All selection plates, left unwrapped, were maintained in the dark at 28° C.
Putative transformants appeared as small clusters of callus on a background of dead, non-transformed cells. Calli were isolated approximately 2-6 weeks post-transformation. Each callus isolate was transferred to its own 60×20 mm plate containing the same selection medium and allowed to grow for approximately 2 weeks before being submitted for analysis.

Experiment [2] has as its system NT-1 tobacco suspension cells treated with PAT (pDAB3779). Briefly: NT-1 tobacco cell transformation, selection on bialaphos. It counts as cell-based. The conditions noted are these: % of selection plates with at least one PCR positive isolate. The protocol:
as §1, §2
For each vector tested, 20-70 mL of 4-day old suspension cells were transferred into a sterile vessel, to which 500-1750 μl of Agrobacterium suspension at the proper OD was added. To ensure a uniform mixture was achieved, the cells were pipetted up and down 5 times with a 10 ml wide-bore pipet. The uniform suspension was then drawn up into a 25 ml barrel of a repeat pipetter and 250 μl of the suspension was dispensed per well into 24-well plates, continuing until the suspension was exhausted. […]

Turning to `C[C@H](NC(=O)[C@H](C)NC(=O)[C@@H](N)CCP(C)(=O)O)C(=O)O` [Bialaphos], the “Transformation frequency (% of selection plates producing at least one callus) after coding region PCR” value in experiment [1] (7.5 mg/L selection agent) amounted to 38.9%; in experiment [1] (10 mg/L selection agent), 44.4%; in experiment [1] (12.5 mg/L selection agent), 38.9%; in experiment [1] (15 mg/L selection agent), 22.2%. Moreover, the “Transformation Frequency on 10 mg/L Bialaphos following PCR Verification” value in experiment [1] is recorded as 79%; in experiment [1] (listed as bialaphos), 79%; in experiment [2] it was 100%; in experiment [2] (listed as bialaphos), 100%.

These data come from patent publication US20110195845A1, “Constructs for Expressing Herbicide Tolerance Genes, Related Plants, and Related Trait Combinations” (Dow AgroSciences LLC, priority 2008, published 2011).
